Results from patent US20250090627A1, “NUTRITIONAL POLYPEPTIDE HAVING BRANCHED-STRUCTURE WITH EFFICIENT BROAD-SPECTRUM ANTIBACTERIAL AND ANTIFUNGAL FUNCTIONS” (ZHEJIANG UNIVERSITY, priority 2022, published 2025).

Experiments:
[1] = test system: methicillin-resistant Staphylococcus aureus; experiment: antibacterial effect against drug-resistant bacteria; type: cell-based; conditions: 100 μg/mL
Procedure: The above polypeptide (prepared by Method 1) was added in methicillin-resistant Staphylococcus aureus solutions at concentrations of 10^8 and 10^9 CFU/mL respectively according to the polypeptide concentration gradient, and then co-cultured at 37° C. for 24 hours. The polypeptide was effective in killing methicillin-resistant Staphylococcus aureus in the effective concentration range. The antimicrobial rate of 100 μg/mL of polypeptide solution could reach up to 100% (FIG. 2) and 98% or more (FIG. 3) respectively.

[2] = test system: Staphylococcus aureus; experiment: antibacterial effect, polypeptide co-cultured with microbe; type: cell-based; conditions: polypeptide 250 μg/mL; 10^8 CFU/mL; co-cultured at 37° C. for 24 hours
[3] = test system: rats; experiment: in vivo hemocompatibility after caudal vein injection, blood routine examination
Procedure: (§1) The polypeptide (prepared by Method 1) of the present disclosure was dissolved in physiological saline at a concentration of 1 mg/mL and injected into rats through the caudal vein at a dose of 8 mg/kg.

[4] = test system: Escherichia coli; experiment: antibacterial effect, polypeptide co-cultured with microbe; type: cell-based; conditions: polypeptide 250 μg/mL; 10^8 CFU/mL; co-cultured at 37° C. for 24 hours
[5] = test system: Candida albicans; experiment: as above; type: cell-based; conditions: polypeptide 250 μg/mL; 10^8 CFU/mL; co-cultured at 37° C. for 24 hours
[6] = test system: rats; experiment: safety (acute systemic inflammation) after caudal vein injection, blood routine examination; type: in vivo
Procedure: as §1

[7] = test system: Pseudomonas aeruginosa; experiment: antibacterial effect, polypeptide co-cultured with microbe; type: cell-based; conditions: polypeptide 250 μg/mL; 10^8 CFU/mL; co-cultured at 37° C. for 24 hours
[8] = test system: fibroblasts; experiment: cell viability of fibroblasts, Cell Counting Kit-8; type: cell-based; conditions: DMEM with 10% fetal bovine serum, 48 h, effective concentration range (FIG. 4)
Procedure: The polypeptide (prepared by Method 2) of the disclosure was added at different concentrations to Dulbecco's Modified Eagle's Medium (DMEM) containing fetal bovine serum (10% by volume) and used to culture fibroblasts. Cells were seeded at 10,000 cells per well in 96-well plates, incubated at 37° C. with a medium containing polypeptides at various concentrations as described above, and the cell viability was determined after 48 h using the Cell Counting Kit-8 method.

[9] = MRSA 10^8 CFU/mL, 37° C. 24 hours (FIG. 2)
[10] = MRSA 10^9 CFU/mL, 37° C. 24 hours (FIG. 3)
[11] = 1 mg/mL in physiological saline, caudal vein, 8 mg/kg, 24 h
[12] = rat blood 24 h after 8 mg/kg caudal vein injection
[13] = rat blood, 24 h after 8 mg/kg caudal vein injection (FIG. 5)

CC1(C)S[C@@H]2[C@H](NC(=O)Cc3ccccc3)C(=O)N2[C@H]1C(=O)O [penicillin G, reference compound]
antimicrobial rate [1, 9]: less than 10%
antimicrobial rate [1, 10]: less than 10%

hyperbranched polylysine [polypeptide (prepared by Method 1)]
antibacterial effect [2]: 100%
behavior of rats [3, 11]: no abnormal behavior
survival of rats [3, 11]: survived
concentration of hemoglobin (HGB), in words [3, 12]: in the normal range
concentration of platelet (PLT), in words [3, 12]: in the normal range
concentration of red blood cell (RBC), in words [3, 12]: in the normal range
Red blood cell concentration ([3]; rat blood 24 h after injection at 1 mg/mL (8 mg/kg), normal range 6.36-9.42): 6.3 ± 0.3 10^12/L
Hemoglobin content ([3]; rat blood 24 h after injection at 1 mg/mL (8 mg/kg), normal range 110-143): 141.8 ± 10.1 g/L
Platelet concentration ([3]; rat blood 24 h after injection at 1 mg/mL (8 mg/kg), normal range 450-1590): 847.0 ± 140.1 10^9/L
antibacterial effect [4]: 100%
antibacterial effect [5]: 100%
behavior of rats [6, 11]: no abnormal behavior
survival of rats ([6]; 1 mg/mL in physiological saline, caudal vein, 8 mg/kg, after 24 h): still alive
inflammatory features ([6]; rat blood routine examination, 24 h after 8 mg/kg caudal vein injection): no inflammatory features
cell concentration of lymphocytes (Lym) [6, 13]: in the normal range
cell concentration of monocytes (Mon) [6, 13]: in the normal range
cell concentration of neutrophils (Neu) [6, 13]: in the normal range
cell concentration of white blood cells (WBC) [6, 13]: in the normal range
antimicrobial rate [1, 9]: 100%
antimicrobial rate [1, 10]: ≥ 98%
antibacterial effect [7]: 100%

hyperbranched polylysine [polypeptide (prepared by Method 2)]
cytotoxicity (cell viability) [8]: not cytotoxic
